Assay results reported in PubChem BioAssay (NCI).
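Cultured in 96-well plates, cells were exposed to test compound for 48 hours across five concentrations. Here, GI50 denotes the concentration required for 50% inhibition of growth. TGI denotes the concentration required for complete inhibition of growth.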

Tests used:
Test in all cases: NCI tumour cell line growth inhibition, 48 h
SK-OV-3 ovarian = tested on: SK-OV-3 ovarian
RXF 393 renal = tested on: RXF 393 renal
UACC-257 melanoma = tested on: UACC-257 melanoma
NCI-H522 lung = tested on: NCI-H522 lung
SF-539 CNS = tested on: SF-539 CNS
TK-10 renal = tested on: TK-10 renal
OVCAR-5 ovarian = tested on: OVCAR-5 ovarian
UO-31 renal = tested on: UO-31 renal
NCI/ADR-RES ovarian = tested on: NCI/ADR-RES ovarian
SR leukemia = tested on: SR leukemia

| Structure (SMILES) | GI50 (SK-OV-3 ovarian) [µM] | TGI (SK-OV-3 ovarian) [µM] | GI50 (RXF 393 renal) [µM] | TGI (RXF 393 renal) [µM] | GI50 (UACC-257 melanoma) [µM] | TGI (UACC-257 melanoma) [µM] | GI50 (NCI-H522 lung) [µM] | TGI (NCI-H522 lung) [µM] | GI50 (SF-539 CNS) [µM] | TGI (SF-539 CNS) [µM] | GI50 (TK-10 renal) [µM] | TGI (TK-10 renal) [µM] | GI50 (OVCAR-5 ovarian) [µM] | TGI (OVCAR-5 ovarian) [µM] | GI50 (UO-31 renal) [µM] | TGI (UO-31 renal) [µM] | GI50 (NCI/ADR-RES ovarian) [µM] | TGI (NCI/ADR-RES ovarian) [µM] | TGI (SR leukemia) [µM] |
| --- | --- | --- | --- | --- | --- | --- | --- | --- | --- | --- | --- | --- | --- | --- | --- | --- | --- | --- | --- |
| CCn1c(-c2nonc2N)nc2c(N3CCCC3)nccc21 | > 24 | > 25 | 9.63 | > 25 | > 22.4 | > 25 | 10.9 | > 25 | 10.8 | > 25 | 9.31 | > 25 | 12.5 | > 25 | 7.48 | > 25 | 10.7 | > 25 |  |
| COc1ccc(-c2cc(=O)c3c(O)c(OC)c(OC)c(OC)c3o2)cc1 |  | > 100 |  | 62.2 |  | > 100 |  | > 100 |  | > 100 |  | > 100 |  | > 100 |  | > 100 |  | > 100 |  |
| Nc1c2ccccc2nc2c(C(=O)Nc3ccc(S(N)(=O)=O)cc3)cccc12 |  | > 100 |  | > 100 |  | > 100 |  | > 100 |  | > 100 |  | > 100 |  | > 100 |  | > 100 |  |  |  |
| COC(=O)C1CCc2nnc(-c3ccccc3)n21 (centres undefined) |  |  |  | > 100 |  | > 100 |  | > 100 |  | > 100 |  | > 100 |  | > 100 |  | > 100 |  |  |  |
| c1ccc(OC2=NC3=S(S2)SC(Oc2ccccc2)=N3)cc1 |  | 65.2 |  | 24.2 |  | 34.7 |  | 36.1 |  | 54.6 |  | 33 |  | 41.9 |  | 36.3 |  |  |  |
| NC(Cc1ccccc1)c1nccs1 (centres undefined) |  | > 100 |  |  |  | > 100 |  | > 100 |  | > 100 |  | > 100 |  | > 100 |  | > 100 |  | > 100 | > 100 |
| CCC[CH2][Sn]1([CH2]CCC)[S]CC[N]1S(=O)(=O)c1ccc(C)cc1 |  |  |  |  | 1.23 | 2.5 | 0.217 | 0.508 | 1.36 | 2.68 | 1.64 | 3.04 | 2.82 | 6.12 | 1.14 | 2.35 |  |  |  |
| O=C1NC(c2ccccc2)C2(C(=O)O)CN(C3CC3)c3cc(N4CCNCC4)c(F)cc3C2N1 (centres undefined) | > 100 | > 100 | > 100 | > 100 | > 100 | > 100 | > 100 | > 100 | > 100 | > 100 | > 100 | > 100 | > 100 | > 100 | > 100 | > 100 | > 100 | > 100 |  |
| CO[C@@]1(c2ccccc2)O[C@H]2OCCC2[C@H]1c1ccc(Cl)cc1 (some centres undefined) |  |  |  | 57.4 |  | 44.6 |  | 67.9 |  | > 100 |  | > 100 |  | > 100 |  | 90.4 |  |  | > 100 |
| CC(=O)[O-].N.N.N.N.[Co+3].[O-][Cl+3]([O-])([O-])[O-].[OH3+] | > 100 | > 100 |  |  | > 100 | > 100 | 49.5 | > 100 |  |  | > 100 | > 100 | > 100 | > 100 | 84.6 | > 100 |  |  |  |
| C[CH2][Sn]([CH2]C)([O]C(=O)c1ccc(F)cc1)[O]C(=O)c1ccc(F)cc1 | > 100 | > 100 | 13.7 | 28.8 | 19.7 | 41 | 1.71 | 4.48 | 16.4 | 30.1 | 17.8 | 32.4 | 30.5 | > 77.2 | 32.8 | > 56.3 |  |  |  |
| C=C1C(OC(C)=O)CC(OC(C)=O)C2(C)C(OC(C)=O)C(OC(C)=O)C3=C(C)C(OC(=O)/C=C/c4ccccc4)CC(C(OC(C)=O)C12)C3(C)C (centres undefined) |  | > 100 |  | > 100 |  | > 100 |  | > 100 |  | > 100 |  | > 100 |  | > 100 |  | > 100 |  |  | > 100 |
| O=C([O-])CC(=O)[O-].[NH-][C@@H]1CCCC[C@H]1[NH-].[Pt+4] | > 100 | > 100 | > 79 | > 100 | > 89 | > 100 | 18.7 | > 100 | 46.8 | > 100 | > 100 | > 100 | > 63.9 | > 100 | 18.9 | > 100 |  |  |  |
| C[C@H]1C=C2C(=O)O[C@H]3CC[C@@H](C1)[C@@]23O |  | 22.4 |  | 9.02 |  | 22.9 |  | 8.15 |  | 4.25 |  | 8 |  | 12.7 |  | 32.1 |  |  | > 100 |
| COC(C)C(O)(C(=O)OCC1=CCN2CCC(O)C12)C(C)(C)O (centres undefined) |  | > 100 |  |  |  | > 100 |  | > 100 |  | > 100 |  | > 100 |  | > 100 |  | > 100 |  | > 100 |  |
| COc1ccc2c(c1)CCc1c-2n[nH]c1-c1[nH]nc2c1CCc1cc(OC)ccc1-2 |  | > 100 |  |  |  | > 100 |  | 67.4 |  | 63.2 |  | > 100 |  | > 100 |  | > 100 |  |  | > 100 |
| CC1(C)CCC[C@]2(C)c3ccccc3C(=O)CC12 (some centres undefined) | > 100 | > 100 | 82.1 | > 100 | 32.5 | > 100 | 27.7 | 76.1 | 27.1 | 75.7 | 69 | > 100 | > 100 | > 100 | 53.1 | > 100 | 20.3 | 91.1 |  |
| CCn1c2ccccc2c2cc(C(=O)c3ccc(C)c4ccccc34)ccc21 | 0.553 | > 100 | 0.35 | 2.71 | 39.3 | > 100 |  |  | 0.255 | 0.802 | 0.658 | > 100 | 0.62 | > 100 | 0.716 | > 100 | 0.312 | > 100 |  |
